From ChEMBL document CHEMBL2146467, “Generation and exploration of new classes of antitubercular agents: The optimization of oxazolines, oxazoles, thiazolines, thiazoles to imidazo[1,2-a]pyridines and isomeric 5,6-fused scaffolds” (Bioorg Med Chem, 2012)
In brackets after ≈: the same amount, converted by molar mass.

Columns and labels:
Type in all cases: functional
Conditions in all cases: 336 h
[1] = system: Mycobacterium tuberculosis; experiment: Antimycobacterial activity against isoniazid-,rifampin-,ethambutol-,rifabutin-resistant Mycobacterium tuberculosis after 14 days
[2] = system: Mycobacterium tuberculosis; experiment: Antimycobacterial activity against isoniazid-,rifampin-,ethambutol-,streptomycin-,kanamycin-,ofloxacin-resistant Mycobacterium tuberculosis after 14 days
[3] = system: Mycobacterium tuberculosis; experiment: Antimycobacterial activity against isoniazid-,rifampin-,ethambutol-,kanamycin-,ofloxacin-resistant Mycobacterium tuberculosis after 14 days

| SMILES | MIC90 [1] | MIC90 [2] | MIC90 [3] |
| --- | --- | --- | --- |
| O=[N+]([O-])c1cn2c(n1)OC[C@@H](OCc1ccc(OC(F)(F)F)cc1)C2 [PRETOMANID] | 0.45 µM (≈ 0.162 µg/mL) | 0.86 µM (≈ 0.309 µg/mL) | 0.22 µM (≈ 0.079 µg/mL) |
| Cc1ccn2c(C(=O)OCc3ccccc3)c(C)nc2c1 | 0.57 µM (≈ 0.16 µg/mL) | < 0.04 µM | < 0.04 µM |
| O=C(OCc1ccccc1)c1csc(-c2ccccc2)n1 | 33.9 µM (≈ 10 µg/mL) | 16.9 µM (≈ 4.99 µg/mL) | 16.9 µM (≈ 4.99 µg/mL) |
| O=C(OCc1ccccc1)c1coc(-c2ccccc2)n1 |  | 4.4 µM (≈ 1.23 µg/mL) | 8.9 µM (≈ 2.49 µg/mL) |
